# Legend:
# Hsp90 = Hsp90 (Homo sapiens, UniProt P07900); conditions: cited from earlier work
# [1] = test system: panel of human tumour cell lines; test: Monolayer proliferation assay, mean IC70 across the cell line panel; assay type: cell-based; conditions: geometric mean of all replicates across the 6 cell lines; concentration inhibiting cell growth by 70%
# Procedure: In vitro evaluation of compounds for anticancer activity in a panel of human tumour cell lines in a monolayer proliferation assay were carried out at the Oncotest Testing Facility, Institute for Experimental Oncology, Oncotest GmbH, Freiburg.
# The Oncotest cell lines were established from human tumor xenografts as described by Roth et al., (1999). The origin of the donor xenografts was described by Fiebig at al., (1999). Other cell lines were either obtained from the NCl (DU145, MCF-7) or purchased from DSMZ, Braunschweig, Germany.
# All cell lines, unless otherwise specified, were grown at 37° C. in a humidified atmosphere (95% air, 5% CO2) in a ‘ready-mix’ medium containing RPMI 1640 medium, 10% fetal calf serum, and 0.1 mg/mL gentamicin (PAA, Cölbe, Germany). […]
# Briefly, cells were harvested from exponential phase cultures by trypsinization, counted and plated in 96 well flat-bottomed microtitre plates at a cell density dependent on the cell line (5-10.000 viable cells/well). […] After thawing the plates, fluorescence was measured using the Cytofluor 4000 microplate reader (excitation 530 nm, emission 620 nm), giving a direct relationship to the total number of viable cells. Growth inhibition may be expressed as treated/control×100 (% T/C). […]
SMILES,"binding affinity to Hsp90, fold greater than 17-AAG (Hsp90; relative to 17-AAG) [fold]","binding affinity to Hsp90, fold greater than geldanamycin (Hsp90; relative to geldanamycin) [fold]",average IC70 value across the cell-line panel [1] [µg/mL]
CO[C@H]1C[C@H](C)Cc2cc(O)cc(c2)NC(=O)/C=C/CC[C@H](OC)[C@@H](OC(N)=O)/C(C)=C/[C@H](C)[C@H]1O [KOSN1559],8,4,
CO[C@H]1[C@@H](OC)C[C@H](C)[C@@H](OC)C2=CC(=O)C=C(NC(=O)/C(C)=C/C=C\[C@H](C)[C@@H](OC(N)=O)/C(C)=C/[C@@H]1C)C2=O [macbecin],,,0.21

# — patent US20110160175A1, “18,21-Didesoxymacbecin Derivatives for the Treatment of Cancer” (priority 2006, published 2011)
